Assay results reported in the supplement of paper PMC6045584.
± gives the standard deviation of the averaged measurements.

Columns and labels:
CAMPTOTHECIN [1] = compound: T1, CC[C@@]1(O)C(=O)OCc2c1cc1n(c2=O)Cc2cc3ccccc3nc2-1 [CAMPTOTHECIN]; experiment: surviving fraction relative to DMSO-only wells; higher = less growth inhibition; conditions: exposure time: 5 days
Procedure, shortened: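 Viability was scored with CellTiter-Glo luminescence and normalised to the median of DMSO-only wells as surviving fraction. Beforehand, log-phase tumour cell lines were seeded at 250–500 cells per well in 384-well plates, allowed 24 hours, and exposed continuously for five days to inhibitors at 0.5, 1, 5, 10, 50, 100, 500 and 1000 nM. Only lines whose three screens gave replicate Pearson r >0.7 and median Z' >0.3 were kept.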

GEFITINIB = compound: COc1cc2ncnc(Nc3ccc(F)c(Cl)c3)c2cc1OCCCN1CCOCC1 [GEFITINIB]; experiment: area under dose-response curve of surviving fraction (unscaled, Aref=0) (surviving fraction x log10(nM)); higher = more resistant; conditions: exposure time: 5 days; dose range 0.5-1000 nM
Procedure, shortened: (§1)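 Each tumour cell line was screened three times in 384-well plates, receiving eight inhibitor concentrations from 0.5 to 1000 nM for five days. CellTiter-Glo luminescence gave viability, normalised to DMSO-only wells. Using the drc R package, surviving fractions were fitted with 3-parameter logistic dose-response curves, and the unscaled activity area over log10 dose (Aref = 0) was taken as the area under the curve.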

[2] = compound: CC(=O)c1c(C)c2cnc(Nc3ccc(N4CCNCC4)cn3)nc2n(C2CCCC2)c1=O; experiment: as above; conditions: exposure time: 5 days; dose range 0.5-1000 nM
Procedure, shortened: as §1

CAMPTOTHECIN [3] = compound: T1, CAMPTOTHECIN; experiment: as above; conditions: exposure time: 5 days; dose range 0.5-1000 nM
Procedure, shortened: as §1

OSI-906 = compound: C[C@]1(O)C[C@@H](c2nc(-c3ccc4ccc(-c5ccccc5)nc4c3)c3c(N)nccn32)C1 [OSI-906]; experiment: as above; conditions: exposure time: 5 days; dose range 0.5-1000 nM
Procedure, shortened: as §1

PACLITAXEL = compound: CC(=O)O[C@H]1C(=O)[C@@]2(C)[C@H]([C@H](OC(=O)c3ccccc3)[C@]3(O)C[C@H](OC(=O)[C@H](O)[C@@H](NC(=O)c4ccccc4)c4ccccc4)C(C)=C1C3(C)C)[C@]1(OC(C)=O)CO[C@@H]1C[C@@H]2O [PACLITAXEL]; experiment: as above; conditions: exposure time: 5 days; dose range 0.5-1000 nM
Procedure, shortened: as §1

YM155 = compound: COCC[n+]1c2c(n(Cc3cnccn3)c1C)C(=O)c1ccccc1C2=O [YM155]; experiment: as above; conditions: exposure time: 5 days; dose range 0.5-1000 nM
Procedure, shortened: as §1

CARBOPLATIN = compound: O=C(O)C1(C(=O)O)CCC1.[NH2-].[NH2-].[Pt+2] [CARBOPLATIN]; experiment: as above; conditions: exposure time: 5 days; dose range 0.5-1000 nM
Procedure, shortened: as §1

[4] = compound: CC(=O)NCC(=O)N1[C@@H]2CC[C@H]1c1ccc(Nc3ncc(C(F)(F)F)c(NC4CCC4)n3)cc12; experiment: as above; conditions: exposure time: 5 days; dose range 0.5-1000 nM
Procedure, shortened: as §1

CELECOXIB = compound: Cc1ccc(-c2cc(C(F)(F)F)nn2-c2ccc(S(N)(=O)=O)cc2)cc1 [CELECOXIB]; experiment: as above; conditions: exposure time: 5 days; dose range 0.5-1000 nM
Procedure, shortened: as §1

Row | Test System | surviving fraction (CAMPTOTHECIN [1]; 0.5 nM) | surviving fraction (CAMPTOTHECIN [1]; 1 nM) | surviving fraction (CAMPTOTHECIN [1]; 5 nM) | surviving fraction (CAMPTOTHECIN [1]; 10 nM) | surviving fraction (CAMPTOTHECIN [1]; 50 nM) | surviving fraction (CAMPTOTHECIN [1]; 100 nM) | surviving fraction (CAMPTOTHECIN [1]; 500 nM) | surviving fraction (CAMPTOTHECIN [1]; 1000 nM) | area under dose-response curve (GEFITINIB) | area under dose-response curve [2] | area under dose-response curve (CAMPTOTHECIN [3]) | area under dose-response curve (OSI-906) | area under dose-response curve (PACLITAXEL) | area under dose-response curve (YM155) | area under dose-response curve (CARBOPLATIN) | area under dose-response curve [4] | area under dose-response curve (CELECOXIB)
1 | 22RV1 PROSTATE | 0.938 ± 0.095 | 0.957 ± 0.053 | 0.586 ± 0.044 | 0.275 ± 0.022 | 0.162 ± 0.16 | 0.189 ± 0.22 | 0.24 ± 0.28 | 0.24 ± 0.28 | 3.34 | 3.53 | 1.47 | 3.1 | 0.962 | 1.58 | 3.48 | 2.6 | 
2 | 93VU HEADNECK | 0.844 ± 0.091 | 0.838 ± 0.038 | 0.805 ± 0.036 | 0.789 ± 0.063 | 0.464 ± 0.021 | 0.277 ± 0.043 | 0.103 ± 0.018 | 0.061 ± 0.007 | 2.74 | 3.72 | 1.8 | 2.69 | 1.04 | 2.62 | 4.03 | 2.61 | 3.54
3 | A549 LUNG | 0.909 ± 0.032 | 0.933 ± 0.021 | 0.964 ± 0.017 | 0.681 ± 0.018 | 0.2 ± 0.0097 | 0.121 ± 0.002 | 0.037 ± 0.003 | 0.026 ± 0.001 | 3.46 | 3.48 | 1.62 | 3.1 | 1.32 | 1.83 | 3.54 | 2.54 | 3.51
4 | CAL51 BREAST | 0.923 ± 0.077 | 0.881 ± 0.05 | 0.797 ± 0.027 | 0.52 ± 0.014 | 0.0468 ± 0.0037 | 0.0333 ± 0.0025 | 0.0225 ± 0.00087 | 0.0242 ± 0.0021 | 3.42 | 3.21 | 1.36 | 3.16 | 0.546 | 0.772 | 3.33 | 2.15 | 3.45
5 | CAL72 BONE | 0.985 ± 0.029 | 0.991 ± 0.021 | 0.955 ± 0.034 | 0.762 ± 0.12 | 0.18 ± 0.022 | 0.118 ± 0.011 | 0.0517 ± 0.0015 | 0.0597 ± 0.0011 | 3.5 | 3.69 | 1.67 | 3.22 | 0.96 | 1.02 | 3.49 | 2.9 | 3.49
6 | CAL120 BREAST | 0.901 ± 0.069 | 0.819 ± 0.0086 | 0.409 ± 0.033 | 0.314 ± 0.035 | 0.182 ± 0.011 | 0.105 ± 0.0043 | 0.0285 ± 0.0023 | 0.0287 ± 0.0014 | 3.22 | 3.17 | 1.05 | 3 | 0.641 | 0.732 | 3.13 | 2.64 | 3.26
7 | CASKI CERVIX | 0.798 ± 0.11 | 0.821 ± 0.062 | 0.575 ± 0.054 | 0.38 ± 0.035 | 0.0697 ± 0.0057 | 0.0273 ± 0.00058 | 0.018 | 0.0217 ± 0.0011 | 2.15 | 3.41 | 1.07 | 2.98 | 0.492 | 1.37 | 3.19 | 2.28 | 3.15
8 | DU4475 BREAST | 0.759 ± 0.11 | 0.643 ± 0.064 | 0.28 ± 0.055 | 0.135 ± 0.018 | 0.0357 ± 0.0042 | 0.0227 ± 0.0045 | 0.0217 ± 0.0015 | 0.0247 ± 0.0025 | 3.01 | 3.51 | 0.671 | 2.23 | 0.884 | 1.66 | 3.22 | 1.69 | 2.98
9 | G292 BONE | 0.901 ± 0.015 | 0.874 ± 0.047 | 0.591 ± 0.037 | 0.383 ± 0.014 | 0.292 ± 0.0027 | 0.18 ± 0.012 | 0.121 ± 0.0073 | 0.102 ± 0.0078 | 3.36 | 3.05 | 1.35 | 2.59 | 0.722 | 1.47 | 3.42 | 2.24 | 3.34
10 | H23 LUNG | 0.919 ± 0.02 | 0.916 ± 0.041 | 0.56 ± 0.021 | 0.269 ± 0.0046 | 0.0917 ± 0.006 | 0.0627 ± 0.0011 | 0.0193 ± 0.00058 | 0.0197 ± 0.00058 | 2.37 | 3.51 | 1.1 | 2.81 | 0.876 | 0.646 | 3.55 | 2.73 | 3.59
11 | HCC38 BREAST | 0.946 ± 0.16 | 0.926 ± 0.15 | 0.563 ± 0.16 | 0.351 ± 0.12 | 0.0953 ± 0.0049 | 0.0423 ± 0.009 | 0.038 ± 0.0072 | 0.0387 ± 0.0025 | 3.99 | 3.95 | 1.16 | 3.25 | 0.609 | 1.05 | 3.4 | 2.71 | 4.1
12 | HCC1806 BREAST | 0.717 ± 0.092 | 0.661 ± 0.046 | 0.269 ± 0.054 | 0.128 ± 0.015 | 0.074 ± 0.0056 | 0.044 ± 0.0017 | 0.0193 ± 0.00058 | 0.0223 ± 0.00058 | 2.94 | 3.44 | 0.682 | 2.83 | 0.267 | 1.02 | 3.64 | 2.62 | 3.65
13 | HCC1954 BREAST | 0.381 ± 0.037 | 0.362 ± 0.0088 | 0.484 ± 0.033 | 0.517 ± 0.037 | 0.245 ± 0.046 | 0.172 ± 0.011 | 0.0478 ± 0.0088 | 0.0365 ± 0.0021 | 2.73 | 3.1 | 0.947 | 1.26 | 0.63 | 1.4 | 3.62 | 3.09 | 3.51
14 | HOS BONE | 0.902 ± 0.0096 | 0.889 ± 0.017 | 0.758 ± 0.011 | 0.25 ± 0.021 | 0.1 ± 0.0059 | 0.056 ± 0.005 | 0.0223 ± 0.00058 | 0.0237 ± 0.00058 | 3.42 | 3.47 | 1.25 | 3.06 | 0.728 | 0.418 | 3.54 | 2.69 | 3.42
15 | HU09 BONE | 0.84 ± 0.015 | 0.82 ± 0.06 | 0.311 ± 0.065 | 0.0673 ± 0.011 | 0.026 ± 0.0027 | 0.0207 ± 0.00058 | 0.0163 ± 0.00058 | 0.0203 ± 0.0011 | 3.37 | 3.47 | 0.747 | 2.66 | 0.426 | 2.13 | 3.58 | 2.44 | 3.26
16 | HUO3N1 BONE | 0.761 ± 0.25 | 0.955 ± 0.14 | 0.639 ± 0.046 | 0.373 ± 0.057 | 0.228 ± 0.016 | 0.203 ± 0.025 | 0.1357 ± 0.0011 | 0.112 ± 0.0079 | 3.38 | 3.42 | 1.37 | 2.99 | 0.938 | 2.22 | 3.59 | 3.12 | 
